Results: patent US7138361B2, “Herbicidal heterocycles” (E. I. du Pont de Nemours and Company, priority 2000, dated 2006)

What was measured:
Assay in all cases: Test C preemergence
Format in all cases: in vivo
[1] = test system: Nightshade; settings: Rate 250 g/ha, visual evaluation after 12 to 14 days
[2] = test system: cocklebur (Xanthium strumarium)
Procedure, shortened: (§1)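 Seeds are planted and treated before emergence; for the postemergence test, plants at 1- to 4-leaf stage (2–18 cm) receive the same formulation, a solvent blend containing surfactant. Plants stay in the greenhouse 12–14 days, then response is scored visually from 0 (none) to 100 (complete control).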

[3] = test system: kochia (Kochia scoparia)
Procedure, shortened: as §1

[4] = test system: giant foxtail (Setaria faberii)
Procedure, shortened: as §1

[5] = test system: lambsquarters (Chenopodium album)
Procedure, shortened: as §1

[6] = test system: soybean (Glycine max)
Procedure, shortened: as §1

[7] = test system: velvetleaf (Abutilon theophrasti)
Procedure, shortened: as §1

[8] = test system: woolly cupgrass (Eriochloa villosa)
Procedure, shortened: as §1

[9] = test system: corn (Zea mays)
Procedure, shortened: as §1

[10] = test system: Surinam grass (Brachiaria decumbens)
Procedure, shortened: as §1

[11] = test system: goosegrass (Eleusine indica)
Procedure, shortened: as §1

[12] = test system: johnsongrass (Sorghum halepense)
Procedure, shortened: as §1

[13] = test system: common ragweed (Ambrosia elatior)
Procedure, shortened: as §1

[14] = test system: Nightshade
[15] = test system: pigweed (Amaranthus retroflexus)
Procedure, shortened: as §1

[16] = test system: Sunflower; settings: Rate 500 g/ha, scale 0 to 100
[17] = test system: morningglory (Ipomoea hederacea)
Procedure, shortened: as §1

[18] = test system: yellow nutsedge (Cyperus esculentus)
Procedure, shortened: as §1

[19] = test system: crabgrass (Digitaria sanguinalis)
Procedure, shortened: as §1

[20] = test system: bermudagrass (Cynodon dactylon)
Procedure, shortened: as §1

[21] = Preemergence, Rate 500 g/ha, scale 0 to 100
[22] = Rate 62 g/ha, scale 0 to 100, 0 no effect, 100 complete control
[23] = preemergence, Rate 250 g/ha, visual evaluation after 12 to 14 days
[24] = preemergence, Rate 125 g/ha, scale 0 to 100, 0 no effect, 100 complete control

O=C1C(n2ccc(C3CCCCC3)n2)OCN1c1cccc(C(F)(F)F)c1 (stereo not drawn) [Compound 51]
40: Plant response rating, Kochia [3, 22]
100: Plant response rating, Foxtail, Giant [4, 21] | Plant response rating (0 to 100), Foxtail, Giant [4, 23] | Plant response rating, Lambsquarters [5, 21] | Plant response rating (0 to 100), Lambsquarters [5, 23] | Plant response rating, Lambsquarters [5, 24] | Plant response rating, Cupgrass, Woolly [8, 21] | Plant response rating, Goosegrass [11, 21] | Plant response rating (0 to 100), Goosegrass [11, 23] | Plant response rating (0 to 100), Pigweed [15, 23] | Plant response rating, Crabgrass [19, 21] | Plant response rating (0 to 100), Crabgrass [19, 23] | Plant response rating, Crabgrass [19, 24] | Plant response rating, Bermudagrass [20, 21] | Plant response rating (0 to 100 where 0 is no effect and 100 is complete control), Bermudagrass [20, 23] | Plant response rating, Bermudagrass [20, 24]
50: Plant response rating (0 to 100), Kochia [3, 23] | Plant response rating, Kochia [3, 24] | Plant response rating, Cupgrass, Woolly [8, 22] | Plant response rating, Cupgrass, Woolly [8, 24]
20: Plant response rating (0 to 100), Soybean [6, 23] | Plant response rating, Johnsongrass [12, 22] | Plant response rating, Johnsongrass [12, 24] | Plant response rating, Morningglory [17, 21] | Plant response rating, Nutsedge [18, 22] | Plant response rating, Nutsedge [18, 24]
30: Plant response rating, Soybean [6, 21] | Plant response rating, Velvetleaf [7, 21] | Plant response rating (0 to 100), Velvetleaf [7, 23] | Plant response rating, Surinam grass [10, 22] | Plant response rating, Surinam grass [10, 24] | Plant response rating, Pigweed [15, 21] | Plant response rating, Sunflower [16] | Plant response rating, Nutsedge [18, 21] | Plant response rating (0 to 100), Nutsedge [18, 23]
80: Plant response rating, Kochia [3, 21] | Plant response rating (0 to 100), Cupgrass, Woolly [8, 23] | Plant response rating, Goosegrass [11, 22]
90: Plant response rating, Goosegrass [11, 24] | Plant response rating, Johnsongrass [12, 21] | Plant response rating, Bermudagrass [20, 22]
60: Plant response rating, Lambsquarters [5, 22] | Plant response rating (0 to 100), Johnsongrass [12, 23] | Plant response rating, Nightshade ([14]; Rate 500 g/ha, scale 0 to 100)
0: Plant response rating (0 to 100), Nightshade [1] | Plant response rating, Cocklebur [2, 21] | Plant response rating, Cocklebur [2, 22] | Plant response rating (0 to 100), Cocklebur [2, 23] | Plant response rating, Cocklebur [2, 24] | Plant response rating, Foxtail, Giant [4, 24] | Plant response rating, Soybean [6, 24] | Plant response rating, Velvetleaf [7, 24] | Plant response rating, Corn [9, 21] | Plant response rating, Corn [9, 22] | Plant response rating (0 to 100), Corn [9, 23] | Plant response rating, Ragweed, Common [13, 21] | Plant response rating (0 to 100), Ragweed, Common [13, 23] | Plant response rating, Ragweed, Common [13, 24] | Plant response rating, Nightshade [14, 22] | Plant response rating, Nightshade ([14]; Rate 125 g/ha, scale 0 to 100, 0 no effect, 100 complete control) | Plant response rating, Pigweed [15, 24] | Plant response rating, Morningglory [17, 24]
70: Plant response rating, Foxtail, Giant [4, 22] | Plant response rating, Surinam grass [10, 21] | Plant response rating (0 to 100), Surinam grass [10, 23] | Plant response rating, Crabgrass [19, 22]
